Test results published in US12486298B2, “Fucosyltransferase specific inhibition using fucose mimetics” (THE FLORIDA INTERNATIONAL UNIVERSITY BOARD OF TRUSTEES, priority 2020, dated 2025).
Entries after “also recorded” stand apart in the source; their conditions may differ.

Legend:
Type in all cases: cell-based, human
[1] = tested on: HL60 cells; assay: Inhibition of native cell surface fucosylation of HL60 cells (flow cytometry); conditions: 72 hours incubation, 24-, 48-, 72-hour timepoints, 6A and 26 at 64 or 256 uM
Method: (§1) For inhibition of cell surface fucosylation, a Symphony A3 (BD Biosciences) was utilized for flow cytometry and the data acquired was analyzed using FlowJo Software (Treestar). Cells were stained using antibodies specific to CD15s (CSLEX1) from BD biosciences and CD15 (LeX) from Biolegend.
The HL60 cell line (a human promyelocytic leukemia cell line) was incubated for 72 hours in RPMI 1640 medium containing 10% FBS with either 2F-Ac-Fucose (positive control), Compound 6A (64 or 256 uM), or Compound 26 (64 or 256 uM). Cells were evaluated by flow cytometry at 24-, 48-, and 72-hour timepoints of incubation for expression of CD15s (sLe^X) and CD15 (Le^X) (FIG. 10B).
(§2) In each case, expression of the relevant marker (CD15 or CD15s) was quantified as the median channel fluorescence (MFI), which was then divided by the MFI of Control cells incubated in media containing DMSO at levels equivalent to that for each inhibitor tested (i.e., Y-axis are values of (MFI of inhibitor-treated cells/MFI of DMSO-incubated Control cells)×100%).

[2] = tested on: THP-1 cells; assay: Inhibition of native cell surface fucosylation of THP-1 cells (flow cytometry); conditions: for CD15 (Le^X) expression / CD15s (sLe^X) expression: 48 hours incubation, 24- and 48-hour timepoints
Method: as §1
The THP-1 cell line (a human monocytic leukemia cell line) was incubated for 48 hours with either Compound 31, Compound 6A, Compound 26, or with 2F-Ac-Fucose (positive control) in RPMI 1640 medium containing 10% FBS. Cells were evaluated by flow cytometry at 24- and 48-hour timepoints for expression of CD15 (Le^X), and CD15s (sLe^X) (FIG. 11).
as §2

[3] = tested on: KG1a cells; assay: Inhibition of native cell surface fucosylation of KG1a cells (flow cytometry); conditions: 72 hours incubation, 24-, 48-, 72-hour timepoints, 64 or 256 uM
Method: as §1
Cells were evaluated at 24-, 48-, and 72-hour timepoints of incubation to assess for effects on expression of CD15s (sLe^X) by flow cytometry (FIG. 10A).
as §2

| SMILES | CD15 (Le^X) expression [1] | CD15s (sLe^X) expression [1] | concentration range inhibiting creation of CD15s [2] | concentration range inhibiting synthesis of CD15 [2] | CD15s (sLe^X) synthesis ([2]; 3 μM) | CD15 (Le^X) synthesis ([2]; 50 μM) | CD15s (sLe^X) synthesis ([2]; 50 μM) | CD15 (Le^X) expression [2] | CD15s (sLe^X) expression [2] | CD15s (sLe^X) expression [3] | time by which CD15s inhibition is evident [2] | concentration inhibiting creation of CD15s ([2]; within 48 hours) |
| --- | --- | --- | --- | --- | --- | --- | --- | --- | --- | --- | --- | --- |
| CC(=O)OC1O[C@@H](C)[C@@H](OC(C)=O)[C@@H](OC(C)=O)[C@@H]1F (stereo partly drawn) [2F-Ac-Fucose, reference compound] | loss of both CD15s and CD15 expression | loss of both CD15s and CD15 expression | micromolar range | micromolar range | not at 3 μM concentration | inhibition of synthesis | inhibition of synthesis | inhibits synthesis of both markers | inhibits synthesis of both markers |  |  |  |
| CC(=O)OC1C(C)OC2Oc3ccc(CC(=O)NCCOCCOCCN)cc3SC2C1OC(C)=O.O=C(O)C(F)(F)F (stereo not drawn) [Compound 6A] | only inhibited the formation of CD15s | inhibited the formation of CD15s | nanomolar range; also recorded: nM range |  |  |  |  | does not inhibit CD15 expression | inhibit creation of CD15s | inhibited CD15s expression similar to that of 2F-Ac-Fucose | ≤ 24 h |  |
| CCOC(=O)C1=C(C23CCC4CC(CC(C4)C2)C3)OC2OC(C)C(OC(C)=O)C(OC(C)=O)C2S1 (stereo not drawn) [Compound 26] | only inhibited the formation of CD15s | inhibited the formation of CD15s | nanomolar range; also recorded: nM range |  |  |  |  | does not inhibit CD15 expression | inhibit creation of CD15s | inhibited CD15s expression similar to that of 2F-Ac-Fucose | ≤ 24 h |  |
| COC(=O)Cc1ccc2c(c1)SC1C(O2)OC(C)C(OC(C)=O)C1OC(C)=O (stereo not drawn) [Compound 31] |  |  |  |  |  |  |  | does not inhibit CD15 expression | specificity for inhibiting the creation of CD15s; also recorded: inhibits the creation of CD15s |  | ≤ 48 h | below 50 uM |
